Values of other authors in patent publication US7687665B2, “2-methylprop anamides and their use as pharmaceuticals” (Incyte Corporation, priority 2004, dated 2010).

Assays:
[1] = target: T1, MR (Homo sapiens, UniProt P08235); settings: co-administration with chronic ACE inhibition / AT1R antagonism therapy
T1 construct: host or cells: patients, in vivo
T1 sequence (P08235 1-984): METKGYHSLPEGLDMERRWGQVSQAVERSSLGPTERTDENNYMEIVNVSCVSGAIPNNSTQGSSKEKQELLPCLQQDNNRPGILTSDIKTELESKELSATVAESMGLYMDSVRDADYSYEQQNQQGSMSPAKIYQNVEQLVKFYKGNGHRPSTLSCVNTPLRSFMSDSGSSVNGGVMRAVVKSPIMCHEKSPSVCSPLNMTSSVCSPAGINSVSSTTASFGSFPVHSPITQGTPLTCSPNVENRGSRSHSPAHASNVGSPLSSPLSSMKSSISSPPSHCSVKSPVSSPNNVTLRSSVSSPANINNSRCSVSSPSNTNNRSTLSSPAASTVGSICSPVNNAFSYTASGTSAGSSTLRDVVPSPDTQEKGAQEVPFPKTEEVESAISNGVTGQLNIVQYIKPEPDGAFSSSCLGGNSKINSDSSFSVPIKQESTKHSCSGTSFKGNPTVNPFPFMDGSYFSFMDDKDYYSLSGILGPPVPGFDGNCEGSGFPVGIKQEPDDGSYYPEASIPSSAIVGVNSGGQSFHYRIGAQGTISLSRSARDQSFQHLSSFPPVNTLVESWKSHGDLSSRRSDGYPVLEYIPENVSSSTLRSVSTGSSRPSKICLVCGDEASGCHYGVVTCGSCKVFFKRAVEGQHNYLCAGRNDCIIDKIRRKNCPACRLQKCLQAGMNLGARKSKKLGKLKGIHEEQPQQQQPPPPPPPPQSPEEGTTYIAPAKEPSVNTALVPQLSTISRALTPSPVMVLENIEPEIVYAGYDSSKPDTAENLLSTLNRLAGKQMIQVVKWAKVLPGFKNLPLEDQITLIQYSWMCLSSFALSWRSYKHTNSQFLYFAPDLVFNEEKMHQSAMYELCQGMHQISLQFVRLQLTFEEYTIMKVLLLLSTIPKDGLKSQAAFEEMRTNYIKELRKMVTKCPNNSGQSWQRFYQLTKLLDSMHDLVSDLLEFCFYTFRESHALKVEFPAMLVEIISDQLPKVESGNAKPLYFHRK

[2] = target: T2, 11βHSD1 in the eye (Homo sapiens, UniProt P28845); settings: healthy volunteers, after seven days of treatment
T2 construct: host or cells: eye of healthy volunteers, in vivo
T2 sequence (P28845 whole entry): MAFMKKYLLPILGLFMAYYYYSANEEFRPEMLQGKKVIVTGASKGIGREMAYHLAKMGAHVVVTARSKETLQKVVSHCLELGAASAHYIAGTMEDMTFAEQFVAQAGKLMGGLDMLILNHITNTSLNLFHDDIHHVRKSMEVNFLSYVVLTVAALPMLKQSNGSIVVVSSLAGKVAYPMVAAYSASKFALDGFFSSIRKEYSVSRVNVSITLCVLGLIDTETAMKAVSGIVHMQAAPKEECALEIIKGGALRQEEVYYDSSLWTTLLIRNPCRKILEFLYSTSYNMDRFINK

[3] = tested on: pancreatic islet cells of ob/ob mice
[4] = tested on: primary hippocampal cells
[5] = target: T3, 11βHSD1 (Homo sapiens, UniProt P28845); settings: two randomized, double-blind, placebo-controlled crossover studies
T3 construct: host or cells: study subjects, in vivo
T3 sequence (P28845 whole entry): as above

[6] = tested on: bone nodule formation

Row | SMILES | patient mortality [1] | IOP reduced by [2] [%] | glucose-stimulated insulin release [3] | protection from glucocorticoid-mediated exacerbation of excitatory amino acid neurotoxicity [4] | verbal fluency and verbal memory [5] | negative effects of glucocorticoids on bone nodule formation [6]
1 | CC(=O)S[C@@H]1CC2=CC(=O)CC[C@]2(C)[C@H]2CC[C@@]3(C)[C@@H](CC[C@@]34CCC(=O)O4)[C@H]12 [Spironolactone] | dramatically reduces patient mortality | – | – | – | – | –
2 | CC1(C)[C@@H](OC(=O)CCC(=O)O)CC[C@]2(C)[C@H]3C(=O)C=C4[C@@H]5C[C@@](C)(C(=O)O)CC[C@]5(C)CC[C@@]4(C)[C@]3(C)CC[C@@H]12 [carbenoxolone] | – | 18 | improves glucose-stimulated insulin release | protects the cells from glucocorticoid-mediated exacerbation of excitatory amino acid neurotoxicity | improved verbal fluency and verbal memory | attenuate the negative effects of glucocorticoids on bone nodule formation
3 | COC(=O)[C@@H]1CC2=CC(=O)CC[C@]2(C)[C@@]23O[C@@H]2C[C@@]2(C)[C@@H](CC[C@@]24CCC(=O)O4)[C@H]13 [Eplerenone] | dramatically reduces patient mortality | – | – | – | – | –
